Here are results for one molecule from patent publication EP4003298B1 (Offhealth S.p.A., priority 2019, dated 2021).

The test system of series [1] is reconstructed human epidermis. The following applies: 24 h.
Experimental: The assay included a prime MTT assay at the end of the incubation: cell survival assay using the reconstructed in vitro 3D artificial human epidermis to assess the cytotoxic potential of the sample.
The in vitro test systems used consist of an artificial three-dimensional system of the human epidermis. A reconstructed model of artificial human skin was prepared comprising normal human epidermal keratinocytes, which was grown as an integrated three-dimensional cell culture model, perfectly mimicking human skin in vitro.
The epidermis was pre-treated for 60 minutes with 0.25% SLS and was obtained in order to induce the synthesis and release of IL-1α. Later 30 µl of the formulation object of the invention was applied on two portions of the epidermis in two replicates, and the exposure was carried out for 24 hours at 37°C, 5% C02. […]
The epidermal units are treated with 1 mg of MD (3-4,5-dimethyl-thiazol-2-yl)-2,5-diphenyl-tetrazolium bromide) solution for 3 hours at 37°C. The solution is then removed and replaced with isopropanol, with a further 2 hours of incubation at room temperature; 2 aliquots of each sample are transferred to a 96-well plate for reading. The absorbance is read at the 570 nm wavelength with a colorimeter (Tecan Sunrise remote model) provided with a microplate reader. […]
Another series has as its system IL-1α. Kind of series: IL-1α release ELISA on SLS-irritated reconstructed human epidermis. Type of series: cell-based. The following applies: positive control SLS 0.25% only. On the procedure: The assay was performed in two replicates.
In this study IL-1α was determined in the culture medium of treated and untreated epidermis, using a direct ELIS assay (enzyme-linked immuno-absorbent assay). The colorimetric signal is directly proportional to the amount of cytokine in the culture medium. The samples are read at 450 nm. The detection limit is less than 10 pg/ml.
Cytokine concentration is determined using a standard curve. The inhibition of IL-1α release was determined as: % of IL-1α inhibition: 100−(pg/ml IL−1α released from irritated; samples/pg/ml IL−1α positive control)*100 [formula]

On to `CCCCCCCCCCCCOS(=O)(=O)[O-].[Na+]` [SLS, sodium lauryl sulfate], for which the “% Average cell viability (ds)” value in series [1] is reported as 65.79 (0.45) %. In addition, the values for the IL-1α pg/ml average in the series on IL-1α (6h) and in the series with IL-1α (24h) were 79.17 pg/mL and 233.86 pg/mL, respectively.
